Experimental data: ChEMBL document CHEMBL4680208, “Sulfone derivatives enter the cytoplasm of Candida albicans sessile cells” (Eur J Med Chem, 2020)
Converted amounts (≈) assume the structure as drawn. The source made the active and inactive calls. The calls are words filed in the database; no cut-off is given here.

Columns and labels:
[1] = tested on: Candida albicans; experiment: Antifungal activity against Candida albicans 90028 assessed as fungal growth inhibition at 16 ug/ml measured after 48 hrs by microdilution method relative to control; assay type: functional; details: read-out: GI
[2] = tested on: Candida albicans; experiment: Anti-adhesive activity against Candida albicans assessed as reduction in […] adhesion to human TR146 cells at 4 ug/ml incubated for 2 hrs prior to cell infection and measured after 2 hrs by colony counting method relative to control; assay type: functional; parameters: scale not given: the % may be the effect or the level left; details: dose 4 µg/ml; time 4 hrs
[3] = tested on: Candida albicans; experiment: Antifungal activity against Candida albicans 90028 assessed as fungal growth inhibition at 0.0625 ug/ml measured after 48 hrs by microdilution method relative to control; assay type: functional; details: read-out: GI
[4] = tested on: Vero; experiment: Cytotoxicity against African green monkey Vero cells at 0.25 to 8 ug/ml after 18 hrs by XTT assay relative to control; assay type: cell-based; details: chlorocebus sabaeus, at 0.25 to 8 µg/mL, dose 0.25-8 µg/ml
[5] = Induction of adhesive activity against Candida albicans assessed as increase in […] adhesion to human TR146 cells at 2 ug/ml incubated for 2 hrs prior to cell infection and measured after 2 hrs by colony counting method relative to control; assay type: cell-based; details: tr146, 4 h, dose 2 µg/ml
[6] = Cytotoxicity against African green monkey Vero cells by XTT assay; assay type: cell-based; details: chlorocebus sabaeus
[7] = tested on: Candida albicans; experiment: Antifungal activity against Candida albicans 90028 assessed as fungal growth inhibition at 1 ug/ml measured after 48 hrs by microdilution method relative to control; assay type: functional; details: read-out: GI
[8] = Toxicity in Galleria mellonella larvae assessed as survival at 16 ug/ml relative to control; details: at 16 µg/mL
[9] = tested on: Candida albicans; experiment: Antifungal activity against Candida albicans 90028 assessed as fungal growth inhibition at 0.125 ug/ml measured after 48 hrs by microdilution method relative to control; assay type: functional; details: read-out: GI
[10] = tested on: Candida albicans; experiment: Antifungal activity against Candida albicans 90028 assessed as fungal growth inhibition at 8 ug/ml measured after 48 hrs by microdilution method relative to control; assay type: functional; details: read-out: GI
[11] = tested on: Candida albicans; experiment: Antifungal activity against Candida albicans 90028 assessed as fungal growth inhibition at 1 ug/ml measured after 18 hrs by microdilution method relative to control; assay type: functional; details: read-out: GI
[12] = tested on: Candida albicans; experiment: Induction of morphological changes in Candida albicans biofilm infected in human TR146 cells at 16 ug/ml measured after 20 hrs by fluorescence microscopy based QCM-D analysis; assay type: functional, organism-based; details: dose 16.0 µg/ml
[13] = tested on: Candida albicans; experiment: Antifungal activity against Candida albicans 90028 assessed as fungal growth inhibition at 0.5 ug/ml measured after 18 hrs by microdilution method relative to control; assay type: functional; details: read-out: GI
[14] = tested on: Candida albicans; experiment: Antifungal activity against Candida albicans 90028 assessed as fungal growth inhibition at 0.0313 ug/ml measured after 18 hrs by microdilution method relative to control; assay type: functional; details: read-out: GI
[15] = tested on: Candida albicans; experiment: Antifungal activity against Candida albicans 90028 assessed as fungal growth inhibition at 16 ug/ml measured after 18 hrs by microdilution method relative to control; assay type: functional; details: read-out: GI
[16] = tested on: Candida albicans; experiment: Antifungal activity against Candida albicans 90028 assessed as fungal growth inhibition at 0.25 ug/ml measured after 18 hrs by microdilution method relative to control; assay type: functional; details: read-out: GI
[17] = tested on: Candida albicans; experiment: Induction of plasma membrane disruption in Candida albicans assessed as accidental type cell death at 4 ug/ml measured after 18 hrs by Annexin V-FITC/propidium iodide staining based flow cytometry (reference value: 1.74 +/- 1.37%); details: dose 4.0 µg/ml
[18] = tested on: Candida albicans; experiment: Antifungal activity against Candida albicans 90028 assessed as fungal growth inhibition measured after 48 hrs by microdilution method; assay type: functional
[19] = tested on: Candida albicans; experiment: Fungicidal activity against Candida albicans 90028 preincubated for 48 hrs followed by plating on SD agar and measured after 48 hrs; assay type: functional; details: time 96 hrs
[20] = tested on: Candida albicans; experiment: Antifungal activity against Candida albicans 90028 assessed as fungal growth inhibition at 2 ug/ml measured after 48 hrs by microdilution method relative to control; assay type: functional; details: read-out: GI
[21] = tested on: Candida albicans; experiment: Antifungal activity against Candida albicans 90028 infected in Galleria mellonella larvae at 4 ug/ml by H and E staining based histological analysis; assay type: functional, organism-based; details: dose 4.0 µg/ml
[22] = tested on: Candida albicans; experiment: Antifungal activity against Candida albicans 90028 assessed as fungal growth inhibition at 0.25 ug/ml measured after 48 hrs by microdilution method relative to control; assay type: functional; details: read-out: GI
[23] = tested on: Candida albicans; experiment: Antifungal activity against Candida albicans 90028 assessed as fungal growth inhibition at 0.125 ug/ml measured after 18 hrs by microdilution method relative to control; assay type: functional; details: read-out: GI
[24] = tested on: Candida albicans; experiment: Antifungal activity against Candida albicans 90028 assessed as fungal growth inhibition at 8 ug/ml measured after 18 hrs by microdilution method relative to control; assay type: functional; details: read-out: GI
[25] = tested on: Candida albicans; experiment: Antifungal activity against Candida albicans 90028 infected in Galleria mellonella larvae assessed as increase in larvae survival at MFC measured 96 hrs post-infection relative to control; assay type: functional
[26] = Cytotoxicity against human TR146 cells assessed as induction of lysosomal membrane permeabilization at 16 ug/ml measured after 18 hrs by AO/propidium iodide staining based confocal laser scanning microscopy; assay type: cell-based; details: tr146, 18 h, dose 16 µg/ml
[27] = tested on: Candida albicans; experiment: Antifungal activity against Candida albicans 90028 assessed as fungal growth inhibition at 0.0313 ug/ml measured after 48 hrs by microdilution method relative to control; assay type: functional; details: read-out: GI
[28] = tested on: Candida albicans; experiment: Antibiofilm activity against Candida albicans 90028 assessed as cell killing at 128 ug/ml by XTT assay relative to control; assay type: functional; details: dose 128 µg/ml
[29] = Cytotoxicity against human MRC5 cells by CellTiter 96 Aqueous One Solution Reagent based assay; assay type: cell-based
[30] = tested on: Candida albicans; experiment: Antifungal activity against Candida albicans 90028 assessed as fungal growth inhibition at 2 ug/ml measured after 18 hrs by microdilution method relative to control; assay type: functional; details: read-out: GI
[31] = tested on: Candida albicans; experiment: Antibiofilm activity against Candida albicans 90028 assessed as increasing in cell killing by XTT assay; assay type: functional
[32] = tested on: Candida albicans; experiment: Antifungal activity against Candida albicans 90028 assessed as fungal growth inhibition at 0.0625 ug/ml measured after 18 hrs by microdilution method relative to control; assay type: functional; details: read-out: GI
[33] = tested on: Candida albicans; experiment: Antifungal activity against Candida albicans 90028 assessed as fungal growth inhibition at 0.5 ug/ml measured after 48 hrs by microdilution method relative to control; assay type: functional; details: read-out: GI
[34] = tested on: Candida albicans; experiment: Antifungal activity against Candida albicans 90028 assessed as fungal growth inhibition at 4 ug/ml measured after 18 hrs by microdilution method relative to control; assay type: functional; details: read-out: GI
[35] = tested on: Candida albicans; experiment: Antifungal activity against Candida albicans 90028 assessed as fungal growth inhibition at 4 ug/ml measured after 48 hrs by microdilution method relative to control; assay type: functional; details: read-out: GI
[36] = tested on: Candida albicans; experiment: Induction of plasma membrane disruption in Candida albicans assessed as accidental type cell death at 0.25 ug/ml measured after 18 hrs by Annexin V-FITC/propidium iodide staining based flow cytometry (reference value: 1.74 +/- 1.37%); details: dose 0.25 µg/ml
[37] = tested on: Vero; experiment: Cytotoxicity against African green monkey Vero cells at 0.25 to 512 ug/ml by XTT assay relative to control; assay type: cell-based; details: chlorocebus sabaeus, at 0.25 to 512 µg/mL, dose 0.25-512 µg/ml
[38] = Induction of adhesive activity against Candida albicans assessed as increase in […] adhesion to human TR146 cells at 0.125 ug/ml incubated for 2 hrs prior to cell infection and measured after 2 hrs by colony counting method relative to control; assay type: cell-based; details: tr146, 2 h, dose 0.125 µg/ml
[39] = tested on: Candida albicans; experiment: Antifungal activity against Candida albicans 90028 infected in Galleria mellonella larvae at 16 ug/ml by H and E staining based histological analysis; assay type: functional, organism-based; details: dose 16.0 µg/ml
[40] = tested on: Candida albicans; experiment: Antibiofilm activity against Candida albicans 90028 assessed as cell killing at 256 ug/ml by XTT assay relative to control; assay type: functional; details: dose 256 µg/ml
[41] = tested on: Candida albicans; experiment: Anti-adhesive activity against Candida albicans assessed as reduction in […] adhesion to human TR146 cells at 0.25 ug/ml incubated for 2 hrs prior to cell infection and measured after 2 hrs by colony counting method relative to control; assay type: functional; parameters: scale not given: the % may be the effect or the level left; details: dose 0.25 µg/ml; time 4 hrs

SMILES	inhibition of growth at 16 µg/mL [1] [%]	inhibition of growth at 0.0625 µg/mL [3] [%]	inhibition of growth at 1 µg/mL [7] [%]	survival [8] [%]	inhibition of growth at 0.125 µg/mL [9] [%]	inhibition of growth at 8 µg/mL [10] [%]	inhibition of growth at 1 µg/mL [11] [%]	inhibition of growth at 0.5 µg/mL [13] [%]	inhibition of growth at 0.0313 µg/mL [14] [%]	inhibition of growth at 16 µg/mL [15] [%]	inhibition of growth at 0.25 µg/mL [16] [%]	MFC [19] [µg/mL]	inhibition of growth at 2 µg/mL [20] [%]	inhibition of growth at 0.25 µg/mL [22] [%]	inhibition of growth at 0.125 µg/mL [23] [%]	inhibition of growth at 8 µg/mL [24] [%]	inhibition of growth at 0.0313 µg/mL [27] [%]	CC50 [29] [µg/mL]	inhibition of growth at 2 µg/mL [30] [%]	CC50 [31] [µg/mL]	other results
NNc1ccc(S(=O)(=O)C(Cl)(Cl)Br)cc1[N+](=O)[O-]	100	98.9	99.2	93	98.9	100	99.8	99.7	99.7	99.9	98.9	4 (≈ 10.6 µM)	99.9	98.9	99.2	99.9	98.7	≥ 16	100	≤ 128	Activity [2]: 100%; Activity [4]: 43.12%; fold change (FC) [5]: 1.03; CC50 [6]: ≥ 8 µg/mL; Activity [12]: Active; Activity [17]: 79%; MIC90 [18]: 2 µg/mL (≈ 5.28 µM); Activity [21]: Active; Activity [25]: 63.57%; Activity [26]: Non-Toxic; Activity [28]: 40%; inhibition of growth at 0.0625 µg/mL [32]: 99.4%; inhibition of growth at 0.5 µg/mL [33]: 99.2%; inhibition of growth at 4 µg/mL [34]: 99.7%; inhibition of growth at 4 µg/mL [35]: 100%
NNc1ccc(S(=O)(=O)C(F)(F)Cl)cc1[N+](=O)[O-]	100	95.8	98.2	93	98.1	100	99.9	99.9	93.8	100	98.8	0.25 (≈ 0.829 µM)	99.7	98.4	98.4	100	94.2	≥ 16	100	≤ 128	Activity [36]: 83.1%; Activity [37]: 93.43%; fold change (FC) [38]: 11.76; Activity [39]: inactive; Activity [40]: 40%; MIC [18]: inactive; Activity [41]: 5.88%; inhibition of growth at 0.0625 µg/mL [32]: 97.6%; inhibition of growth at 0.5 µg/mL [33]: 98.9%; inhibition of growth at 4 µg/mL [34]: 100%; inhibition of growth at 4 µg/mL [35]: 100%
